For 24 compounds, inhibition and IC50 results are on record in patent US20240350643A1, “PROTEIN DEGRADATION AGENT” (SUZHOU KINTOR PHARMACEUTICALS, INC., priority 2021, published 2024).

One assay addresses T1, c-Myc protein (Homo sapiens, UniProt P01106).
T1 construct: endogenous in cells; host or cells: HL60 cells
Put plainly: Ability of compounds to degrade c-Myc protein in HL60 cells (ELISA). The format is cell-based. To be noted: HL-60, 1 μM compound, 24 h, read-out: HL60 cells Protein degradation rate (1 μM).

In a further assay the test system is HL60 cells. Put plainly: Anti-proliferation ability of compounds on HL60 cells (CTG). The format is cell-based, human. The settings on record: Homo sapiens, HL-60, 72 h, 3 days, CellTiter-Glo, read-out: HL60 cells Proliferation inhibitory activity. The gist of the method:
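Proliferation inhibition IC50 derived from CellTiter-Glo luminescence after 3-day compound treatment of HL60 cells plated at 20000 per well, against 0.1% DMSO controls.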
(In general: Cellular ATP, detected with luciferase, serves as a proxy for viable cell number.)

T1 sequence (P01106 whole entry): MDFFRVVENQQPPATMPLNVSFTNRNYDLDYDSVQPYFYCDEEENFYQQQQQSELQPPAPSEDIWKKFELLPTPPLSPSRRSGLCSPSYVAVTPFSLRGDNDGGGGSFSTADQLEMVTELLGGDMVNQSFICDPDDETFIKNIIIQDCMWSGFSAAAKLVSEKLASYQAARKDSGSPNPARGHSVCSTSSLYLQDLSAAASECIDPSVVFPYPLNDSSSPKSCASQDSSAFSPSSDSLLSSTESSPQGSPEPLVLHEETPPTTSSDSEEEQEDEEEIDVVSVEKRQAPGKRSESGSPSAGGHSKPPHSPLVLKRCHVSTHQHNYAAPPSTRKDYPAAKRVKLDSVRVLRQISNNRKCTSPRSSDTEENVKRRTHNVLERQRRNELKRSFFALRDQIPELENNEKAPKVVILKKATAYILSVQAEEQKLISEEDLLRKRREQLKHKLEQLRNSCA

As to `CN(CCc1cccc2ccccc12)Cc1ccc(CC(=O)Nc2ccc3c(c2)C(=O)N(C2CCC(=O)NC2=O)C3=O)cc1` (stereo not drawn) [A167], the inhibition at 1 µM at c-Myc protein was in the range of 60 to 90%. Further, in the assay with HL60 cells, the IC50 was 2.1 ± 1.1 nM.
Turning to `CN(CCn1c2ccccc2c2cccnc21)Cc1ccc(CC(=O)Nc2ccc3c(c2)C(=O)N(C2CCC(=O)NC2=O)C3=O)cc1` (stereo not drawn) [A168], the inhibition at 1 µM on c-Myc protein is 60 to 90%. In addition, the IC50 in the assay on HL60 cells is 2.6 ± 0.7 nM.
Take `CN(CCc1ccc(Cl)cc1Cl)Cc1ccc(CC(=O)Nc2ccc3c(c2)C(=O)N(C2CCC(=O)NC2=O)C3=O)cc1` (stereo not drawn) [A169]: the inhibition at 1 µM at c-Myc protein lay within 60 to 90%. Besides, the IC50 in the assay with HL60 cells turned out to be 1.9 ± 0.6 nM.
As for `CN(CCc1ccc(Cl)c(Cl)c1)Cc1ccc(CC(=O)Nc2ccc3c(c2)C(=O)N(C2CCC(=O)NC2=O)C3=O)cc1` (stereo not drawn) [A170], the inhibition at 1 µM on c-Myc protein is 60 to 90%. In the assay on HL60 cells, the IC50 came to 4 ± 1.7 nM.
The corresponding values for `O=C(Cn1c2ccccc2c2cccnc21)NCc1ccc(CC(=O)Nc2ccc3c(c2)CN(C2CCC(=O)NC2=O)C3=O)cc1` (stereo not drawn) [A171] are 60 to 90% and 0.3 ± 0.2 nM.
Consider `O=C(Cc1nccc2ccccc12)NCc1ccc(CC(=O)Nc2ccc3c(c2)CN(C2CCC(=O)NC2=O)C3=O)cc1` (stereo not drawn) [A172], for which, at c-Myc protein, the inhibition at 1 µM fell in the range of 60 to 90%. In addition, the IC50 with HL60 cells was under 3 nM.
In the case of `O=C(Cc1cccc2cccnc12)NCc1ccc(CC(=O)Nc2ccc3c(c2)CN(C2CCC(=O)NC2=O)C3=O)cc1` (stereo not drawn) [A173], the inhibition at 1 µM at c-Myc protein is 60 to 90%. In addition, the IC50 in the assay with HL60 cells is under 3 nM.
Turning to `CN(CCc1ccc(Cl)cc1Cl)Cc1ccc(CC(=O)Nc2ccc3c(c2)CN(C2CCC(=O)NC2=O)C3=O)c(F)c1` (stereo not drawn) [A174], at c-Myc protein, the inhibition at 1 µM was in the range of 60 to 90%. Besides, in the assay with HL60 cells, the IC50 was under 3 nM.
In the case of `O=C(Cc1cccc2ccccc12)NCc1ccc(CNCc2ccc3c(c2)C(=O)N(C2CCC(=O)NC2=O)C3=O)cc1` (stereo not drawn) [A175], the inhibition at 1 µM at c-Myc protein fell in the range of 60 to 90%. Besides, in the assay with HL60 cells, the IC50 was determined as 14.4 ± 6.4 nM.
For `O=C(Cn1c2ccccc2c2cccnc21)NCc1ccc(CNCc2ccc3c(c2)C(=O)N(C2CCC(=O)NC2=O)C3=O)cc1` (stereo not drawn) [A176], in that order: 60 to 90% and 2.1 ± 0.6 nM.
Regarding `O=C(Cc1cccc2ccccc12)NCc1ccc(C(=O)NCc2ccc3c(c2)C(=O)N(C2CCC(=O)NC2=O)C3=O)cc1` (stereo not drawn) [A177], the inhibition at 1 µM on c-Myc protein fell in the range of 60 to 90%. The IC50 in the assay on HL60 cells worked out at 9.5 nM.
Take `O=C(Cn1c2ccccc2c2cccnc21)NCc1ccc(C(=O)NCc2ccc3c(c2)C(=O)N(C2CCC(=O)NC2=O)C3=O)cc1` (stereo not drawn) [A178]: the inhibition at 1 µM on c-Myc protein is 60 to 90%. Moreover, the IC50 with HL60 cells is 16.9 nM.
The corresponding values for `O=C1CCC(N2C(=O)c3ccc(CNCc4ccc(C(=O)NCCc5cccc6ccccc56)cc4)cc3C2=O)C(=O)N1` (stereo not drawn) [A179] are 60 to 90% and 14 ± 4.1 nM.
For `O=C1CCC(N2C(=O)c3ccc(CNCc4ccc(C(=O)NCCn5c6ccccc6c6cccnc65)cc4)cc3C2=O)C(=O)N1` (stereo not drawn) [A180], in that order: 60 to 90% and 133 ± 48.4 nM.
In the case of `CN(CCc1cccc2ccccc12)Cc1ccc(CNCc2ccc3c(c2)C(=O)N(C2CCC(=O)NC2=O)C3=O)cc1` (stereo not drawn) [A181], the inhibition at 1 µM on c-Myc protein lay within 60 to 90%. In addition, the IC50 in the assay with HL60 cells stood at 2 ± 1 nM.
As to `CN(CCn1c2ccccc2c2cccnc21)Cc1ccc(CNCc2ccc3c(c2)C(=O)N(C2CCC(=O)NC2=O)C3=O)cc1` (stereo not drawn) [A182], the inhibition at 1 µM at c-Myc protein lay within 60 to 90%. Further, the IC50 in the assay with HL60 cells amounted to 1.1 ± 0.8 nM.
On to `CN(CCc1cccc2cccnc12)Cc1ccc(CNCc2ccc3c(c2)C(=O)N(C2CCC(=O)NC2=O)C3=O)cc1` (stereo not drawn) [A183], for which the inhibition at 1 µM at c-Myc protein was 60 to 90%. In addition, the IC50 in the assay on HL60 cells was 16.7 ± 2.5 nM.
With `CN(CCc1ccc(Cl)c(Cl)c1)Cc1ccc(CNCc2ccc3c(c2)C(=O)N(C2CCC(=O)NC2=O)C3=O)cc1` (stereo not drawn) [A184], the inhibition at 1 µM on c-Myc protein was 60 to 90%. Also, in the assay on HL60 cells, the IC50 was determined as 11.9 ± 5.5 nM.
Turning to `CN(CCc1ccc(Cl)cc1Cl)Cc1ccc(CNCc2ccc3c(c2)C(=O)N(C2CCC(=O)NC2=O)C3=O)cc1` (stereo not drawn) [A185], the inhibition at 1 µM at c-Myc protein was in the range of 60 to 90%. The IC50 with HL60 cells was determined as 7.5 ± 1.1 nM.
The corresponding values for `O=C(Cc1nccc2ccccc12)NCc1ccc(CNCc2ccc3c(c2)C(=O)N(C2CCC(=O)NC2=O)C3=O)cc1` (stereo not drawn) [A186] are 60 to 90% and 32.1 ± 1.3 nM.
As for `O=C(Cc1cccc2cccnc12)NCc1ccc(CNCc2ccc3c(c2)C(=O)N(C2CCC(=O)NC2=O)C3=O)cc1` (stereo not drawn) [A187], the inhibition at 1 µM at c-Myc protein is 60 to 90%. For the same compound, the IC50 in the assay on HL60 cells is 9.2 ± 0.5 nM.
Turning to `CN(Cc1ccc(CNC(=O)Cc2nccc3ccccc23)cc1)Cc1ccc2c(c1)C(=O)N(C1CCC(=O)NC1=O)C2=O` (stereo not drawn) [A188], the inhibition at 1 µM at c-Myc protein is 30 to 60%. In the assay on HL60 cells, the IC50 stood at 279 ± 33.8 nM.
Regarding `O=C(Cc1cccc2ccccc12)NCc1ccc(CNCc2ccc3c(c2)C(=O)N(C2CCC(=O)NC2=O)C3=O)c(F)c1` (stereo not drawn) [A189], the inhibition at 1 µM on c-Myc protein is 60 to 90%. For the same compound, the IC50 in the assay on HL60 cells stood at 5.6 ± 1 nM.
The corresponding values for `O=C(Cn1c2ccccc2c2cccnc21)NCc1ccc(CNCc2ccc3c(c2)C(=O)N(C2CCC(=O)NC2=O)C3=O)c(F)c1` (stereo not drawn) [A190] are 60 to 90% and 1.7 ± 0.6 nM.
